Assays:
[1] = Antiproliferative activity against human MDA-MB-231 cells after 96 hrs by SRB assay; type: functional, cell-based; conditions: MDA-MB-231, 96 h
[2] = Antiproliferative activity against human MCF7 cells after 96 hrs by SRB assay; type: functional, cell-based; conditions: MCF7, 96 h
[3] = Antiproliferative activity against human T47D cells after 96 hrs by SRB assay; type: functional, cell-based
[4] = Antiproliferative activity against human PC3 cells after 96 hrs by SRB assay; type: functional, cell-based; conditions: PC-3, 96 h
[5] = Antiproliferative activity against human DU145 cells after 96 hrs by SRB assay; type: functional, cell-based; conditions: DU-145, 96 h
[6] = Antiproliferative activity against human HCT116 cells after 96 hrs by SRB assay; type: functional, cell-based; conditions: HCT-116, 96 h
[7] = Antiproliferative activity against human HT-29 cells after 96 hrs by SRB assay; type: functional, cell-based; conditions: HT-29, 96 h
[8] = Antiproliferative activity against human HL60 cells after 96 hrs by SRB assay; type: functional, cell-based; conditions: HL-60, 96 h
[9] = Antiproliferative activity against HAF cells after 96 hrs by SRB assay; type: cell-based; conditions: Homo sapiens
[10] = Selectivity index, ratio of IC50 for HAF cells to IC50 for human MDA-MB-231 cells; type: functional
MCF7 = experiment: Selectivity index, ratio of IC50 for HAF cells to IC50 for human MCF7 cells; type: functional
T47D = experiment: Selectivity index, ratio of IC50 for HAF cells to IC50 for human T47D cells; type: functional
PC-3 = experiment: Selectivity index, ratio of IC50 for HAF cells to IC50 for human PC3 cells; type: functional
DU-145 = experiment: Selectivity index, ratio of IC50 for HAF cells to IC50 for human DU145 cells; type: functional
HCT-116 = experiment: Selectivity index, ratio of IC50 for HAF cells to IC50 for human HCT116 cells; type: functional
[11] = Selectivity index, ratio of IC50 for HAF cells to IC50 for human HT-29 cells; type: functional
HL-60 = experiment: Selectivity index, ratio of IC50 for HAF cells to IC50 for human HL60 cells; type: functional

Row | SMILES | IC50 [1] | IC50 [2] | IC50 [3] | also measured
1 | COc1cc2c(cc1C(=O)Nc1ccccc1F)CC[C@H]1C(C)(C)[C@@H](O)CC[C@]21C | > 25 µM | > 25 µM | > 25 µM | 
2 | CCNC(=O)c1cc2c(cc1OC)[C@@]1(C)CC[C@H](O)C(C)(C)[C@@H]1CC2 | 7.65 µM | > 25 µM | > 25 µM | 
3 | COc1cc2c(cc1C(=O)Nc1ccc(Cl)cc1)CC[C@H]1C(C)(C)[C@@H](O)CC[C@]21C | 1.03 µM | 1.46 µM | 0.15 µM | 
4 | COc1cc2c(cc1C(=O)Nc1cccc(Cl)c1)CC[C@H]1C(C)(C)[C@@H](O)CC[C@]21C | 0.99 µM | 2.23 µM | 0.26 µM | 
5 | CC1(C)[C@@H](O)CC[C@]2(C)c3cc(O)c(C(=O)Nc4ccc(F)cc4)cc3CC[C@@H]12 | 9.25 µM | 6.05 µM | 2.55 µM | 
6 | COc1cc2c(cc1C(=O)O)CC[C@H]1C(C)(C)C(O)CC[C@]21C (single isomer, unassigned) | > 25 µM | > 25 µM | > 25 µM | 
7 | COc1cc2c(cc1C(=O)N(C)C)CC[C@H]1C(C)(C)[C@@H](O)CC[C@]21C | > 25 µM | > 25 µM | > 25 µM | 
8 | COc1cc2c(cc1C(=O)Nc1ccccc1Cl)CC[C@H]1C(C)(C)[C@@H](O)CC[C@]21C | 3.69 µM | 6.55 µM | 0.82 µM | 
9 | COC(=O)c1ccc(NC(=O)c2cc3c(cc2OC)[C@@]2(C)CC[C@H](O)C(C)(C)[C@@H]2CC3)cc1 | 6.81 µM | 4.61 µM | 2.7 µM | 
10 | COc1cc2c(cc1C(=O)Nc1ccccc1N)CC[C@H]1C(C)(C)[C@@H](O)CC[C@]21C | 4.31 µM | 11.2 µM | 0.55 µM | 
11 | COc1cc2c(cc1C(=O)Nc1ccc(C)cc1)CC[C@H]1C(C)(C)[C@@H](O)CC[C@]21C | 1.22 µM | 0.22 µM | 0.23 µM | IC50 [4]: 1.48 µM; IC50 [5]: 2.09 µM; IC50 [6]: 0.94 µM; IC50 [7]: 0.28 µM; IC50 [8]: 3.52 µM; IC50 [9]: 3.85 µM; Ratio IC50 [10]: 3.1; Ratio IC50 (MCF7): 3.1; Ratio IC50 (T47D): 3.1; Ratio IC50 (PC-3): 3.1; Ratio IC50 (DU-145): 3.1; Ratio IC50 (HCT-116): 3.1; Ratio IC50 [11]: 3.1; Ratio IC50 (HL-60): 3.1
12 | COC(=O)c1ccccc1NC(=O)c1cc2c(cc1OC)[C@@]1(C)CC[C@H](O)C(C)(C)[C@@H]1CC2 | 7.98 µM | 4.31 µM | 1.22 µM | 
